# Measurements published in patent US10561638B2, “Methods for treating dependence” (Biotie Therapies, Inc., priority 2007, dated 2020).
# Tests used:
# [1] = tested on: plasma noradrenaline, dopamine and epinephrine; experiment: Plasma catecholamines in beagle dogs, 2 mg/kg b.i.d. for 15 days; assay type: in vivo
# Experimental: Male beagle dogs were randomized to be orally dosed with either empty capsules (control) or nepicastat (2 mg·kg^−1, po, b.i.d.) for 15 days. Daily venous blood samples were drawn, six hours after the first dose, for measurement of plasma concentrations of dopamine and noradrenaline. The samples were collected in tubes containing heparin and glutathione, centrifuged at −4° C. and the separated plasma was stored at −70° C. until analysis. […] When compared to the control group, nepicastat (2 mg·kg^−1, b.i.d, po) produced significant decreases in plasma concentrations of noradrenaline and increases in plasma concentrations of dopamine and dopamine/noradrenaline ratio.
# The chronic effects of nepicastat (14.5 day treatment) on the plasma DA/NE ratio were investigated in normal dogs. Animals were randomized to receive, orally, either placebo (empty capsule) or nepicastat (2 mg/kg, b.i.d) for 14.5 days. Daily blood samples were drawn, 6 h after the first dose, for the measurement of plasma concentrations of DA and NE. The samples were collected in tubes containing heparin and glutathione, centrifuged at −4° C. and stored at −70° C. until analysis.
# Male Beagle dogs (Marshall farms, North Rose, N.Y.) weighing between 9-16 kg were used in the study. The animals were allowed water ad libitum and given food once daily at ˜10.00 AM. Animals were randomly assigned to one of the following treatment groups (n=8/group): placebo (empty capsule), or nepicastat at 2 mg/kg b.i.d (4 mg/kg/day). Each animal received 2 doses daily, morning and afternoon (8-10 hours apart). Daily blood samples (10 ml) were drawn 6 h after the AM dose for measurement of plasma levels of nepicastat and catecholamines. The blood was collected in tubes containing heparin and glutathione and centrifuged at −4° C. within 1 h of collection. The plasma was separated and divided into two samples, one for the measurement of plasma catecholamines and the other for analysis of nepicastat.
# Plasma norepinephrine (NE), dopamine (DA) and epinephrine (EPI) were analyzed by HPLC using electrochemical detection. Plasma concentration of nepicastat was determined by HPLC using electrochemical detection.
# The BQL (below quantitation limit) in the DA concentration of dog 1 at day 10 was set to 0; 1n (0) was set to missing. The analysis was performed using a mixed model (using PROC MIXED) with the day and treatment categorical variables being fixed and the dog within treatment being a random factor. For the fixed effects, the interaction between the day and the treatment was included, since the difference between the drug and placebo groups varies from day to day. Contrasts were calculated using the CONTRAST statement, which correctly takes into account the error terms for each particular contrast. In particular, the contrasts comparing the treatment group to the […] uses the dog mean square for its error term, while the comparisons used to establish steady state are all within dog comparisons, and require the error mean square.
# The time period of steady state was calculated using the Helmert transformation (cf. SAS PROC GLM manual). These transformations compare each treatment mean with the average of the treatment means of the time points following. The steady state period is defined to start at the first time point following the maximum time at which the Helmert contrast is statistically significant. However, since this method can fail to detect a smoothly changing process, as appears might be the case here, the slope of the analyte concentration during the steady state period also was calculated. The slope during the steady state period was calculated for each dog individually, yielding one slope per animal. Univariate statistics on the slopes were then calculated, with Normal theory confidence intervals built on the mean slope, and the hypothesis of slope equaling zero was tested, and its Normal theory p-value was calculated. […]
# thyroid uptake of 123I = experiment: Thyroid uptake of 123I in humans; assay type: in vivo, human
# [2] = tested on: left ventricular [3H] CGP-12177 binding sites; experiment: [3H] CGP-12177 saturation binding in left ventricle membranes of treated dogs; design: species or system beagle dogs; conditions: 10 mg/kg/day for 4.5 days
# Experimental: Ventricles were homogenized in 50 mM Tris-HCl, 5 mM Na2EDTA buffer (pH 7.4 at 4° C.) using a Polytron P-10 tissue disrupter (setting 10, 2×15 second bursts). Homogenates were centrifuged at 500×g for 10 minutes and the supernatants stored on ice. The pellets were washed by resuspension and centrifugation at 500×g and the supernatants combined. The combined supernatants were centrifuged at 48,000×g for 20 minutes. The pellets were washed by resuspension and centrifugation once in homogenizing buffer and twice in 50 mM Tris-HCl, 0.5 mM EDTA buffer (pH 7.4 at 4° C.). Membranes were stored at −70° C. until required. Saturation experiments were conducted using [^3H] CGP-12177 in buffer containing 50 mM Tris-HCl, 0.5 mM EDTA (pH 7.4 at 32° C.). Non-specific binding was defined by 10 μM isoproterenol. Total bound, non-specific bound and total count tubes were set up for eight concentrations of [^3H] […] Aquasol scintillation fluid was added to each vial and radioactivity determined by liquid scintillation counting. Saturation binding isotherms were analyzed after first converting total ligand concentrations to free ligand concentrations (total−bound=free). […] Tissue catecholamine levels were analyzed by comparing nepicastat-treated groups with the placebo (control) treated groups. […] Additionally, a linear orthogonal contrast was calculated for all three doses within the context of a one-way ANOVA. […]
# [3] = tested on: brain dopamine/norepinephrine ratio; experiment: Dopamine/norepinephrine ratios in the brain of rodents; conditions: in vivo
# Experimental: Dopamine/norepinephrine ratios in the brain of rodents treated with nepicastat were determined. Dopamine/norepinephrine ratios increased in the brains of rodents treated with nepicastat or disulfuram.
compound,measurement,setting,value
"Cl.NCc1c[nH]c(=S)n1[C@H]1CCc2c(F)cc(F)cc2C1 [nepicastat, (S)-5-Aminomethyl-1-(5,7-difluoro-1,2,3,4-tetrahydronaphth-2-yl)-2,3-dihydro-2-thioxo-1H-imidazole hydrochloride]",day of peak decrease in plasma EPI,[1],8 days
same,day of peak decrease in plasma NE,[1],6 days
same,day of peak increase in plasma DA,[1],7 days
same,day of peak increase in plasma DA/NE ratio,[1],6 days
same,days of dosing until decrease in plasma noradrenaline attained significance,[1],4 days
same,decrease in plasma EPI vs placebo,[1],1.91 fold
same,decrease in plasma NE vs placebo,[1],2.1 fold
same,increase in plasma DA vs placebo,[1],7.5 fold
same,increase in plasma DA/NE ratio vs placebo,[1],13.6 fold
same,time of peak effect on plasma DA/NE ratio,[1],6 to 7 days
same,time to steady-state of effect on plasma DA,[1],~8 days post-dose
same,time to steady-state of effect on plasma EPI,[1],~6 days post-dose
same,time to steady-state of effect on plasma NE,[1],approximately 4 days post-dose
same,thyroid uptake of 123I vs placebo,"thyroid uptake of 123I; 5, 40 and 100 mg",no differences from placebo
same,reduction of thyroid uptake of 123I vs placebo,thyroid uptake of 123I; single 200 mg dose,significantly greater than placebo
same,"left ventricular binding, treated vs vehicle group",[2],no difference
same,dopamine/norepinephrine ratios in the brain,[3],increased
